The values that follow come from ChEMBL document CHEMBL1148617, “Design, synthesis, and structure-activity relationships of 1-,3-,8-, and 9-substituted-9-deazaxanthines at the human A2B adenosine receptor” (J Med Chem, 2006).

Usually Ki stands for the dissociation constant of the complex between target and ligand, obtained from inhibition or displacement. Low readings indicate tighter binding, high ones weaker binding. For orientation: inhibition means the change of the read-out against control, counted positive when it falls.

For one test, the target named is T1, Adenosine receptor A2a (Homo sapiens, UniProt P29274).
T1 sequence (P29274 whole entry): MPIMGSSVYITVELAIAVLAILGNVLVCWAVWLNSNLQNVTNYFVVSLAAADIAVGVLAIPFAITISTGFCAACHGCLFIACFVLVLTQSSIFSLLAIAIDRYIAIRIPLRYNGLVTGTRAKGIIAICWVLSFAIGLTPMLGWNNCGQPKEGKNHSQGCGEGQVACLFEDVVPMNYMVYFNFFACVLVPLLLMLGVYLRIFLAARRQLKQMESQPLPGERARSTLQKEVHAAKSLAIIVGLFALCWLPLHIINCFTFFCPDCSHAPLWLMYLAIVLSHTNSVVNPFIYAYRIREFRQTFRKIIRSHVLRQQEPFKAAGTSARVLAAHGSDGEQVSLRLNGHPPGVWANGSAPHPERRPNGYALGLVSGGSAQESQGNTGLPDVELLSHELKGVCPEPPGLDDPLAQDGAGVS
Assay: not given
On to `CCCn1c(=O)c2[nH]c(-c3cc(OCC(=O)c4ccc(C)cc4)nn3C)nc2n(CCC)c1=O`, for which affinity was put at a Ki of 19.1 nM.
Still for that read-out and setting: the result for `CCCn1c(=O)c2[nH]c(-c3ccc(OCC(=O)c4ccc(I)cc4)nn3)nc2n(CCC)c1=O` reads more than 1000 nM; that for `CCCn1c(=O)c2nc(-c3cc(OCC(=O)c4ccc(F)cc4)nn3C)[nH]c2n(CCC)c1=O`, 12.6 nM; that for `CCCn1c(=O)c2[nH]c(-c3ccc(OCC(=O)O)cc3)cc2n(CCC)c1=O`, 123 nM.
On the same count and under the same terms, in the case of `CCCn1c(=O)c2nc(-c3cc(OCC(=O)c4ccc(C(C)=O)cc4)nn3C)[nH]c2n(CCC)c1=O` it was 87.1 nM; in that of `CCCn1c(=O)c2[nH]c(-c3ccc(OCC(=O)Nc4ccc(I)cc4)cc3)nc2n(CCC)c1=O`, 5890 nM; in that of `CCCn1c(=O)c2[nH]c(-c3ccc(OCC(=O)c4ccc(I)cc4)cc3)nc2n(CCC)c1=O`, 2.14 nM.
Same read-out and setting: in the case of `CCCn1c(=O)c2nc(-c3cc(OCC(=O)c4ccc(C(=O)OCC)cc4)nn3C)[nH]c2n(CCC)c1=O` it was 32.4 nM.
The molecule `CCCn1c(=O)c2[nH]c(-c3cc(OCC(=O)c4ccc(Br)cc4)nn3C)nc2n(CCC)c1=O` gave a Ki of 25.1 nM.
In the case of `CCCn1c(=O)c2nc(-c3ccc(OCC(=O)c4ccc(I)cc4)cn3)[nH]c2n(CCC)c1=O`, the Ki was 11 nM.
Still for that read-out and setting: the result for `CCCn1c(=O)c2nc(-c3cc(OCC(=O)c4ccc(F)cc4)n(C)n3)[nH]c2n(CCC)c1=O` reads 186 nM.
The same measure, in the same setting: in the case of `CCCn1c(=O)c2[nH]c(-c3ccc(OCC(=O)Nc4ccc(Cl)cc4)cc3)nc2n(CCC)c1=O` it was 191 nM.

The target in another test is T1, Adenosine receptor A2a. Kind of test: Displacement of [3H]ZM-241385 from recombinant human adenosine A2A receptor expressed in HeLa cells at 0.1 uM. A general note: In a radioligand displacement assay an active substance lowers the binding of a labelled ligand.
Consider `CCCn1c(=O)c2[nH]c(-c3ccc(OCC(=O)NCc4ccc(Cl)cc4)cc3)cc2n(C)c1=O`, for which the inhibition turned out to be 20%.
Same read-out and setting: the result for `CCCn1c(=O)c2[nH]c(-c3ccc(OCC(=O)Nc4ccc(C)cc4)cc3)cc2n(CCC)c1=O` reads 44%; that for `CCCn1c(=O)c2[nH]c(-c3ccc(OCC(=O)Nc4ccc(C(=O)c5ccccc5)cc4)cc3)cc2n(CCC)c1=O`, 13%; that for `CCCn1c(=O)c2[nH]c(-c3ccc(OCC(=O)Nc4ccc(CC(=O)OCC)cc4)cc3)cc2n(C)c1=O`, 0%.
On to `Cn1c(=O)c2[nH]c(-c3ccc(OCC(=O)Nc4nc5ccccc5[nH]4)cc3)cc2n(C)c1=O`, for which the inhibition came to 34%.
Consider `COc1cc(-c2cc3c([nH]2)c(=O)n(C)c(=O)n3C)ccc1OCC(=O)O`, for which the inhibition came out at 5%.
Still for that read-out and setting: in the case of `CCCn1c(=O)c2[nH]c(-c3ccc(OCC(=O)Nc4ccc(S(N)(=O)=O)cc4)cc3)cc2n(CCC)c1=O` it was 37%.
The same measure, in the same setting: the result for `CCCn1c(=O)c2[nH]c(-c3ccc(OCC(=O)Nc4ccc(I)cc4)cc3)cc2n(C)c1=O` reads 24%.
`CCOC(=O)COc1ccc(-c2cc3c([nH]2)c(=O)n(C)c(=O)n3C)c(OC)c1`: the inhibition stood at 11%.
In the case of `CCCn1c(=O)c2[nH]c(-c3ccc(OCC(=O)Nc4ccc(F)cc4O)cc3)cc2n(CCC)c1=O`, the inhibition came out at 80%.

In a further test the target is T2, Adenosine receptor A2b (Homo sapiens) (UniProt P29275).
T2 sequence (whole entry): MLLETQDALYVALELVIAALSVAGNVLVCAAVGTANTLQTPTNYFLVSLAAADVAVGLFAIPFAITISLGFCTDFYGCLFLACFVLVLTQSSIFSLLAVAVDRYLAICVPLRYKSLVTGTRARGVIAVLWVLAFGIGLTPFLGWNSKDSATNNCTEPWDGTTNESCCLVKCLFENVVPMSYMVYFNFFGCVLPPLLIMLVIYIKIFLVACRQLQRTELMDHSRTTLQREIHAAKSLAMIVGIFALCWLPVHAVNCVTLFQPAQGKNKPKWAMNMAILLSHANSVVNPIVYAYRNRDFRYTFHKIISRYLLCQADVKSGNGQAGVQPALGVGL
In words: Displacement of [3H]DPCPX from recombinant human adenosine A2B receptor expressed in HEK293 cells at 0.01 uM.
Consider `CCCn1c(=O)c2[nH]c(-c3ccc(OCC(=O)NCc4ccc(Cl)cc4)cc3)cc2n(C)c1=O`, for which the inhibition was 33%.
The same measure, in the same setting: the result for `CCCn1c(=O)c2[nH]c(-c3ccc(OCC(=O)Nc4ccc(C)cc4)cc3)cc2n(CCC)c1=O` reads 27%; that for `CCCn1c(=O)c2[nH]c(-c3ccc(OCC(=O)Nc4ccc(C(=O)c5ccccc5)cc4)cc3)cc2n(CCC)c1=O`, 11%; that for `CCCn1c(=O)c2[nH]c(-c3ccc(OCC(=O)Nc4ccc(CC(=O)OCC)cc4)cc3)cc2n(C)c1=O`, 10%.
Still for that read-out and setting: the result for `Cn1c(=O)c2[nH]c(-c3ccc(OCC(=O)Nc4nc5ccccc5[nH]4)cc3)cc2n(C)c1=O` reads 24%; that for `CCCn1c(=O)c2[nH]c(-c3ccc(OCC(=O)Nc4ccc(S(N)(=O)=O)cc4)cc3)cc2n(CCC)c1=O`, 10%.
On the same count and under the same terms, the result for `CCCn1c(=O)c2[nH]c(-c3ccc(OCC(=O)Nc4ccc(I)cc4)cc3)cc2n(C)c1=O` reads 51%; that for `CCCn1c(=O)c2[nH]c(-c3ccc(OCC(=O)Nc4ccc(F)cc4O)cc3)cc2n(CCC)c1=O`, 23%.

For a further test, the target named is T3, Adenosine receptor A2b (Homo sapiens, UniProt P29275).
T3 sequence (P29275 whole entry): T2 sequence (whole entry)
Assay: not given
The molecule `CCCn1c(=O)c2[nH]c(-c3cc(OCC(=O)c4ccc(C)cc4)nn3C)nc2n(CCC)c1=O` gave a Ki of more than 1000 nM.
Still for that read-out and setting: the result for `CCCn1c(=O)c2[nH]c(-c3ccc(OCC(=O)NCc4ccc(Cl)cc4)cc3)cc2n(C)c1=O` reads 20.4 nM.
With `CCCn1c(=O)c2[nH]c(-c3ccc(OCC(=O)c4ccc(I)cc4)nn3)nc2n(CCC)c1=O`, the Ki is more than 1000 nM.
Same read-out and setting: the result for `CCCn1c(=O)c2[nH]c(-c3ccc(OCC(=O)Nc4ccc(C)cc4)cc3)cc2n(CCC)c1=O` reads 14.1 nM.
As for `CCCn1c(=O)c2nc(-c3cc(OCC(=O)c4ccc(F)cc4)nn3C)[nH]c2n(CCC)c1=O`, the Ki is more than 1000 nM.
Molecule `CCCn1c(=O)c2[nH]c(-c3ccc(OCC(=O)Nc4ccc(C(=O)c5ccccc5)cc4)cc3)cc2n(CCC)c1=O` had a Ki of 77.6 nM.
With `CCCn1c(=O)c2[nH]c(-c3ccc(OCC(=O)O)cc3)cc2n(CCC)c1=O`, the Ki was 15.8 nM.
The same measure, in the same setting: the result for `CCCn1c(=O)c2[nH]c(-c3ccc(OCC(=O)Nc4ccc(CC(=O)OCC)cc4)cc3)cc2n(C)c1=O` reads 132 nM; that for `Cn1c(=O)c2[nH]c(-c3ccc(OCC(=O)Nc4nc5ccccc5[nH]4)cc3)cc2n(C)c1=O`, 20 nM; that for `COc1cc(-c2cc3c([nH]2)c(=O)n(C)c(=O)n3C)ccc1OCC(=O)O`, 269 nM.
On the same count and under the same terms, in the case of `CCCn1c(=O)c2[nH]c(-c3ccc(OCC(=O)Nc4ccc(S(N)(=O)=O)cc4)cc3)cc2n(CCC)c1=O` it was 200 nM; in that of `CCCn1c(=O)c2nc(-c3cc(OCC(=O)c4ccc(C(C)=O)cc4)nn3C)[nH]c2n(CCC)c1=O`, more than 1000 nM; in that of `CCCn1c(=O)c2[nH]c(-c3ccc(OCC(=O)Nc4ccc(I)cc4)cc3)cc2n(C)c1=O`, 5.89 nM.
In turn, `CCOC(=O)COc1ccc(-c2cc3c([nH]2)c(=O)n(C)c(=O)n3C)c(OC)c1` gave a Ki of 2190 nM.
On the same count and under the same terms, the result for `CCCn1c(=O)c2[nH]c(-c3ccc(OCC(=O)c4ccc(I)cc4)cc3)nc2n(CCC)c1=O` reads 5890 nM; that for `CCCn1c(=O)c2nc(-c3cc(OCC(=O)c4ccc(C(=O)OCC)cc4)nn3C)[nH]c2n(CCC)c1=O`, more than 1000 nM; that for `CCCn1c(=O)c2[nH]c(-c3cc(OCC(=O)c4ccc(Br)cc4)nn3C)nc2n(CCC)c1=O`, more than 1000 nM.
On the same count and under the same terms, the result for `CCCn1c(=O)c2nc(-c3ccc(OCC(=O)c4ccc(I)cc4)cn3)[nH]c2n(CCC)c1=O` reads more than 1000 nM; that for `CCCn1c(=O)c2nc(-c3cc(OCC(=O)c4ccc(F)cc4)n(C)n3)[nH]c2n(CCC)c1=O`, more than 1000 nM; that for `CCCn1c(=O)c2[nH]c(-c3ccc(OCC(=O)Nc4ccc(Cl)cc4)cc3)nc2n(CCC)c1=O`, 7.94 nM.

Another test deals with T2, Adenosine receptor A2b (Homo sapiens). In words: Displacement of [3H]DPCPX from recombinant human adenosine A2B receptor expressed in HEK293 cells at 0.1 uM. It counts as cell-based.
On to `CCCn1c(=O)c2[nH]c(-c3ccc(OCC(=O)NCc4ccc(Cl)cc4)cc3)cc2n(C)c1=O`, for which the inhibition amounted to 76%.
Same read-out and setting: the result for `CCCn1c(=O)c2[nH]c(-c3ccc(OCC(=O)Nc4ccc(C)cc4)cc3)cc2n(CCC)c1=O` reads 81%; that for `CCCn1c(=O)c2[nH]c(-c3ccc(OCC(=O)Nc4ccc(C(=O)c5ccccc5)cc4)cc3)cc2n(CCC)c1=O`, 51%; that for `CCCn1c(=O)c2[nH]c(-c3ccc(OCC(=O)Nc4ccc(CC(=O)OCC)cc4)cc3)cc2n(C)c1=O`, 35%.
The same measure, in the same setting: the result for `Cn1c(=O)c2[nH]c(-c3ccc(OCC(=O)Nc4nc5ccccc5[nH]4)cc3)cc2n(C)c1=O` reads 80%.
The same measure, in the same setting: the result for `COc1cc(-c2cc3c([nH]2)c(=O)n(C)c(=O)n3C)ccc1OCC(=O)O` reads 15%; that for `CCCn1c(=O)c2[nH]c(-c3ccc(OCC(=O)Nc4ccc(S(N)(=O)=O)cc4)cc3)cc2n(CCC)c1=O`, 53%; that for `CCCn1c(=O)c2[nH]c(-c3ccc(OCC(=O)Nc4ccc(I)cc4)cc3)cc2n(C)c1=O`, 97%.
Take `CCOC(=O)COc1ccc(-c2cc3c([nH]2)c(=O)n(C)c(=O)n3C)c(OC)c1`: the inhibition was 10%.
In the case of `CCCn1c(=O)c2[nH]c(-c3ccc(OCC(=O)Nc4ccc(F)cc4O)cc3)cc2n(CCC)c1=O`, the inhibition worked out at 88%.
